Test results reported in patent US20020025296A1, “Combined use of nucleoside analogues and gene transfection for tissue imaging and therapy” (priority 1994, published 2002).

Experiments:
[1] = test system: KBALB-STK cells that express HSV-1 TK; assay: In vitro cellular uptake of radiopharmaceuticals in transduced or non-transduced sarcoma cell lines; type: cell-based; settings: KBALB-STK cells relative to KBALB or KBALB-LNL cells, 37° C.
Experimental: The KBALB sarcoma models used in these studies are derived by exposing wild-type KBALB cells to Moloney murine leukemia virus (MMLV) producer cell supernatants containing replication incompetent ecotropic retroviruses. […] These transduced cell lines are cultured in media containing the antibiotic G-418 to select for those cells expressing the neomycin resistance gene.
KBALB-STK, KBALB-LNL, or wild type KBALB cells were grown to confluency in 24 well culture plates. [^125I]-IVDU (sp. act.=12 Gbq/mmol), [^125I]-1VFRU (sp. act.=11 Gbq/mmol), [^131′I]-IVDU-CDS (sp. act.=2.8 Gbq/mmol) or [^131I]-IVFRU-CDS (sp. act.=4.3 Gbq/mmol) were added to each well in 100 μL saline solution and incubated at 37° C. At varying times after exposure to the test compound, the supernatant was removed, the cells rinsed with saline, and the adherent cells were then trypsinized prior to their removal. Cellular uptake -was determined by gamma counting using a Beckmann 8000 gamma counter.

KBALB-STK tumors [2] = assay: Ganciclovir treatment of mice bearing KBALB-STK tumors; type: in vivo; settings: 100 mg/kg ip once daily
Experimental: (§1) BALB-STK cells (1×10^5 cells) were injected subcutaneously into the flank of 12 Balb-c mice. All inoculated animals developed palpable tumors suitable for imaging after 14 days at which time the tumors were approximately 10 mm in diameter. Static images were obtained following injection of 3.7 Mbq of [^131I]-VFRU (sp. act.=252 Gbq/mmol) via the tail vein. Animals were placed in the prone position under a pinhole collimator using a Searle gamma camera (Scintiview) with data manipulated on an ADAC computer (DPS 3300). Images were acquired over 15 minutes using a 256×256 matrix. After initial imaging, a group of animals (n=6) were administered an intraparietoneal (ip) injection of ganciclovir (100 mg/kg) once daily for seven consecutive days. The control group (n=6) received daily saline injections. After four days, the animals were administered [^131I]-IVFRU as described previously and imaging was performed using the same acquisition protocol described above. It was noted that the treatment group tumor size had shrunk to an average size of less than 5 mm. […] The tumors in the saline administered control animals continued to grow until termination of the experiment. […] The scintigram, presented as FIG. 7, is for the same animal 8 hours after [^131I]-IVFRU administration following 4 days of ganciclovir treatment.

[3] = Partition coefficients (log P), n-octanol/water, modified shake-flask technique with UV quantitation; type: physicochemical; settings: n-octanol and water (1:1, v/v)
Experimental: Partition coefficients (log P) were measured by determining the distribution of the test compound between a presaturated mixture of n-octanol and water (1:1, v/v). The analytical method consisted of a modified shake-flask technique and ultraviolet (UV) spectrometry quantitation after centrifugal separation of the two phases. The concentration of the test compound in the octanol phase prior to distribution was 0.5 mM. The dihydropyridine chromophore (λmax=360 nm) was used for quantitative UV analysis of IVDU-CDS and IVFRU-CDS, for which the results are shown in Table 1.

[4] = Pseudo-first order oxidation of the 1-methyl-1,4-dihydropyridine-CDS in mouse blood, brain homogenate and liver homogenate; type: in vitro ADME; settings: 37° C.; for k, oxidation rate, brain / t1/2, oxidation, brain: 20% mouse brain homogenate; for k, oxidation rate, blood / t1/2, oxidation, blood: 50% mouse blood
Experimental: Pseudo-first order rate constants and half-lives for the oxidation of IVDU-CDS and IVFRU-CDS were determined in 50% mouse blood, 20% mouse brain homogenate and 20% mouse liver homogenate. A solution of the test compound in DMSO (10 Mm) was added to each matrix and incubated at 37° C. At various times after test compound addition, an aliquot was removed and added to acetonitrile (100 μL). The samples were immediately centrifuged and the supernatant was analyzed by quantitative reverse phase HPLC. The rate of disappearance of the 1-methyl-1,4-dihydropyridine-CDS was determined by UV detection at 360 nm.

KBALB-STK tumors [5] = assay: Biodistribution in mice bearing KBALB-STK tumors; type: in vivo
Experimental: (§2) KBALB or KBALB-STK cells (1×10^5 cells) were injected subcutaneously into the flank of male Balb-c mice. Palpable tumors appeared 14 days after injection. [^131I]-IVFRU (370 KBq, sp. act. 59 Gbq/mmol) was injected via the tail vein into each tumor bearing animal. Three animals were sacrificed and dissected at each time interval. The radioactivity uptake by selected tissues of interest were determined using a Beckman 8000 gamma counter. Tissue uptake is expressed as a percentage of the administered dose per gram of tissue versus time in FIGS. 3 and 4. The tumor to blood ratio is presented for both tumor models in FIG. 5.

KBALB tumors = assay: Biodistribution in mice bearing wild type KBALB tumors; type: in vivo; settings: relative to KBALB-STK tumors
Experimental: as §2

[6] = test system: KBALB-STK tumors expressing HSV-1 TK; assay: Scintigraphic imaging of KBALB-STK tumors; type: in vivo, mice; settings: 8 hours after administration
Experimental: as §1

[7] = Stability of the preferred compounds; settings: comparison among preferred compounds
HSV-1 TK = HSV-1 TK (Human herpesvirus 1, UniProt P0DTH5); assay: Substrate property for the gene expression product HSV-1 TK; type: biochemical, herpes simplex virus type 1
Chain of HSV-1 TK (P0DTH5 whole entry): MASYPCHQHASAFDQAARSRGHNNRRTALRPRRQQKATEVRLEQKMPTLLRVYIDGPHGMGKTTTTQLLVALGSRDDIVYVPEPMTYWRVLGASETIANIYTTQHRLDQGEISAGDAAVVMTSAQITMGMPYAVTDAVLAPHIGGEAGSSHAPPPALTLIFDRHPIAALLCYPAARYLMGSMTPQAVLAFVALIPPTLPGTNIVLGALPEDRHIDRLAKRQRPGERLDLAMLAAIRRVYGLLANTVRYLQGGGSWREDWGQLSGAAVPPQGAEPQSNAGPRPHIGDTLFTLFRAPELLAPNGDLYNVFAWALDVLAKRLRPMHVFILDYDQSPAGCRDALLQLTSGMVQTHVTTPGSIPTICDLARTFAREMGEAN

O=c1[nH]c(=O)n([C@@H]2O[C@H](CO)[C@@H](O)[C@@H]2F)cc1C=C[125I] [[^125I]-IVFRU]
cellular uptake [1]: selective uptake

Nc1nc(O)c2ncn(COC(CO)CO)c2n1 [ganciclovir]
tumor response (KBALB-STK tumors [2]; after 7 days of treatment, all treated animals): completely regressed
average tumor size (KBALB-STK tumors [2]; after four days, tumors approximately 10 mm at start): less than 5 mm

CN1C=CCC(C(=O)O[C@H]2[C@@H](F)[C@H](n3cc(/C=C/I)c(=O)[nH]c3=O)O[C@@H]2CO)=C1 [IVFRU-CDS, (E)-5-(2-iodovinyl)-3′-O-(1-methyl-1,4-dihydropyridyl-3-carbonyl)-2′-fluoro-2′-deoxyuridine]
log P [3]: 1.83
k, oxidation rate, brain [4]: 0.0031 min⁻¹
t1/2, oxidation, brain [4]: 3.72 h
k, oxidation rate, liver ([4]; 20% mouse liver homogenate): 0.00531 min⁻¹
t1/2, oxidation, liver ([4]; 20% mouse liver homogenate): 2.17 h
k, oxidation rate, blood [4]: 0.0027 min⁻¹
t1/2, oxidation, blood [4]: 4.27 h

O=c1[nH]c(=O)n(C2OC(CO)C(O)C2F)cc1/C=C/[131I] (stereo not shown) [[^131I]-IVFRU, [^131I]-(E)-5-(2-iodovinyl)-2′-fluoro-2′-deoxyuridine]
peak tumor/blood ratio (KBALB-STK tumors [5]; KBALB-STK tumors, 8 hours post injection, tail vein): approximately 3
tumor uptake (KBALB-STK tumors [5]; tumors expressing HSV-1 TK): Preferential tumor uptake
tumor/blood ratios (KBALB tumors; all time points): much lower
tumor radioactivity (KBALB tumors): significantly less
activity in region of the shrinking tumor remnant (scintigram) ([6]; following 4 days of ganciclovir treatment): relatively devoid of activity
uptake into tumor (scintigram) ([6]; prior to ganciclovir treatment): selective uptake

CN1C=CCC(C(=O)O[C@H]2C[C@H](n3cc(/C=C/I)c(=O)[nH]c3=O)O[C@@H]2CO)=C1 [IVDU-CDS, (E)-5-(2-iodovinyl)-3′-O-(1-methyl-1,4-dihydropyridyl-3-carbonyl)-2′-deoxyuridine]
log P [3]: 1.77
k, oxidation rate, brain [4]: 0.00961 min⁻¹
t1/2, oxidation, brain [4]: 1.2 h
k, oxidation rate, liver ([4]; 20% mouse liver homogenate): 0.01081 min⁻¹
k, oxidation rate, blood [4]: 0.00522 min⁻¹
t1/2, oxidation, blood [4]: 2.22 h
stability [7]: more stable

O=c1[nH]c(=O)n([C@@H]2O[C@H](CO)[C@@H](O)[C@H]2F)cc1/C=C/I [IVFRU, (E)-5-(2-iodovinyl)-2′-fluoro-2′-deoxyuridine]
logP [3]: 1.21

O=c1[nH]c(=O)n([C@H]2C[C@H](O)[C@@H](CO)O2)cc1/C=C/I [IVDU, (E)-5-(2-iodovinyl)-2′-deoxyuridine]
logP [3]: 1.1
stability [7]: less stable than IVFRU, IVFAU and IVAU

O=c1[nH]c(=O)n([C@H]2C[C@H](O)[C@@H](CO)O2)cc1C=C[125I] [[^125I]-VDU]
cellular uptake [1]: selective uptake

O=c1[nH]c(=O)n([C@@H]2O[C@H](CO)[C@@H](O)[C@H]2F)cc1/C=C/[123I] [^123I-IVFRU]
substrate for HSV-1 TK (HSV-1 TK): substrate
